Measured values taken from US9102669B2, “Substituted piperidinyl-pyridazinyl derivatives useful as SCD 1 inhibitors” (Janssen Pharmaceutica NV, priority 2011, dated 2015).
“And” between values parts separate entries of the source, which are not always exact repeats. Equal entries are not always repeated. Where two headings read alike, the source gives them in different places.

Tests used:
SCD1 [1] = biological target: SCD1 (Rattus norvegicus (Rat), UniProt P07308); assay: SCD1 enzymatic assay in rat liver microsomes (RLM); format: biochemical; conditions: for inhibition at 1 µM: read-out: % Inh.@ 1 μM
Sequence of SCD1 (Rattus norvegicus (Rat), UniProt P07308) (P07308 whole entry): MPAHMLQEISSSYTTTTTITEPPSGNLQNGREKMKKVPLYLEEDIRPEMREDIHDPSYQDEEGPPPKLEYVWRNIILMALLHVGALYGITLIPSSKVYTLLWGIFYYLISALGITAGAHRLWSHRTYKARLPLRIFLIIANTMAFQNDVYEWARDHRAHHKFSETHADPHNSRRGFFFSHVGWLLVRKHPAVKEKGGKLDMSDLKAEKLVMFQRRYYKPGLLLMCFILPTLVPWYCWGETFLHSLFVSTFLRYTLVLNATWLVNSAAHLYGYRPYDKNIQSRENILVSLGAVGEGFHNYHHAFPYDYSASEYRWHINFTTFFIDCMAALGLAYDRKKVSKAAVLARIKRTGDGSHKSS
Method in brief: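 Microsomes from livers of Sprague Dawley rats after fast/fat-free re-feeding cycles (10 μg per reaction) were incubated 2 h at room temperature with 20 μM stearoyl-CoA plus ^3H-stearoyl-CoA (2 μCi/mL), ATP, CoA, NADH and glutathione in 0.1 M K-phosphate, with compound. Reactions were acid-stopped and charcoal-treated; radioactivity was counted and fitted to a sigmoidal dose-response curve.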

SCD1 [2] = biological target: T1, SCD1 (Homo sapiens (Human), UniProt O00767); assay: SCD1 14C-palmitate assay in A431 cells; format: cell-based; conditions: read-out: A431 cells 14C-PA IC50
T1 sequence (O00767 whole entry): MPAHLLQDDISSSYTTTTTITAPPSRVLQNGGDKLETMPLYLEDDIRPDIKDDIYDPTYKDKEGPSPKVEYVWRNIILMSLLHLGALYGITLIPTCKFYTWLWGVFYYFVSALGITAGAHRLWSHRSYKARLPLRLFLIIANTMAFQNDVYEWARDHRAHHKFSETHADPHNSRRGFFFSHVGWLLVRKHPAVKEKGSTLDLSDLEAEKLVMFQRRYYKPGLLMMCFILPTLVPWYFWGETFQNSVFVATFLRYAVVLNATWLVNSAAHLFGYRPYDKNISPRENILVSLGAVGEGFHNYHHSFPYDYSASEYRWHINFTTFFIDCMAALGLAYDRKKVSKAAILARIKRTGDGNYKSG
Description: Human epithelial carcinoma A431 cells were seeded at 400,000 cells per well in 48-well tissue culture plate and treated with 2 cycles of fasting in low glucose medium (DMEM, Cellgro#10-014-CV, 1 g/L glucose, 2% Charcoal Filtered FBS) for 24 hours; and re-feeding with high glucose medium for 24 hours (DMEM, Cellgro#10-013-CM, 4.5 g/L glucose, 10% Charcoal Filtered FBS and 0.05 mg/mL Lilly Humulin R, Cat.#, HI-210). Prior to running the assay, the cells were washed twice with high glucose medium (400 μL), followed by addition of 250 μL assay buffer (DMEM, 4.5 g/L glucose, 0.05 mg/mL Human Insulin, 0.1% Fatty Acid Free BSA) to each well. Then, 100 μL of assay buffer containing 20 μM Palmitic Acid, 0.05 μCi ^14C Palmitic Acid (Perkin Elmer, NEC075H) and test compound (at selected concentration) was added to each well. The cells were then Incubated at 37° C. and 5% CO2 tissue culture incubator for 4 hours, followed by extensive washes with pre-chilled PBS. The cell plates were then frozen at −20° C. overnight. After thawing out the plates, 100 μL of 1N KOH was added to each well and the plates were incubated at 37° C. for 30 mins. Cell lysates were transferred to 1 mL Eppendorf tubes and incubated at 95° C. for 1 hour, followed by addition of 10 μL formic acid and 220 μL acetonitrile. The tubes were then centrifuged at 12,000 rpm and the supernatant dried under N2 for 2-3 hours. Dried extract was re-suspended in 60 μL hexane and loaded onto TLC plates (pre-coated with 10% AgNO3 in acetonitrile). The TLC plates were placed into glass running chamber containing 200 mL running solution (100 mL running solution: 92.5 mL chloroform, 6 mL methanol, 750 μL acetic acid, 750 μL dH2O). After running, the TLC plates were air dried and scanned on Bioscan AR-2000 for quantification of ^14C-palmitioleate and ^14C-palmitate peaks. Area under the curve of the peaks were used to calculate product/substrate ratio, an index of SCD1 activity.

SCD1 [3] = biological target: T1, SCD1; assay: SCD1 13C-palmitic acid assay in A431 cells; format: cell-based; conditions: read-out: A431 cells 13C-PA IC50
Method in brief: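 A431 cells with 0.05 mg/mL human insulin in 0.1% fatty-acid-free BSA assay medium; 4 h incubation at 37 °C before KOH saponification with D4-palmitate internal standard.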

[4] = 10-day diet-induced obese C57bl/6 mice study, body weight change; format: in vivo, mouse; design: unit not given here; conditions: DIO C57BL/6J mice, oral 30 mg/kg once a day, after 10 days of treatment
Description: Male DIO C57BL/6J mice from Taconic were maintained on high fat diet D12492 containing 60% kCal of mostly saturated fats (Research Diets Inc.) for 4 week from 6-week old. Test compounds were prepared in 0.5% hydroxypropyl methyl cellulose for oral dosing at 30 mg/kg once a day. After 10-days of treatment, body weight change was recorded.
Representative compounds of the present invention were tested according to the procedure as described above, with results as listed in Table 7, below. In the results presented below, * indicates a calculated p value <0.05 vs. vehicle-treated group.

[5] = 1 μM test compound, rat liver microsomes

inhibition at 1 µM (SCD1 [1]; [5])	IC50 (SCD1 [1]; rat liver microsomes)	IC50 (SCD1 [2])	SMILES	inhibition at 1 µM (SCD1 [1])	IC50 (SCD1 [3])	body weight change [4]	% Inh.@ 1 μM (SCD1 [1]; [5])
84%	0.394 µM	0.383 µM	Cn1cc(-c2ccc(N3CCC(N4CCc5ccccc54)CC3)nn2)cn1 [Compound #10, 1-(1-(6-(1-methyl-1H-pyrazol-4-yl)pyridazin-3-yl)piperidin-4-yl)indoline]				
84%	0.086 µM	0.116 µM	Cc1cn(-c2ccc(N3CCC(n4ccc5ccccc54)CC3)nn2)cn1 [compound 88, 1-(1-(6-(4-methyl-1H-imidazol-1-yl)pyridazin-3-yl)piperidin-4-yl)-1H-indole]				
87%	0.126 µM	0.377 µM	Cn1cc(-c2ccc(N3CCC(c4noc5ccc(F)cc45)CC3)nn2)cn1 [Compound #3, 5-fluoro-3-(1-(6-(1-methyl-1 H-pyrazol-4-yl)pyridazin-3-yl)piperidin-4-yl)benzo[d]isoxazole]				
85%	0.156 µM	0.157 µM	Fc1ccc2onc(C3CCN(c4ccc(-n5ccnc5)nn4)CC3)c2c1 [compound 84, 3-(1-(6-(1H-imidazol-1-yl)pyridazin-3-yl)piperidin-4-yl)-5-fluorobenzo[d]isoxazole]				
95%	0.014 µM	0.024 µM	Cc1nsc(-c2ccc(N3CCC(N4CCc5ccccc54)CC3)nn2)n1 [Compound #7, 5-(6-(4-(indolin-1-yl)piperidin-1-yl)pyridazin-3-yl)-3-methyl-1,2,4-thiadiazole]				
79%	0.126 µM	0.063 µM	Cc1ccn(-c2ccc(N3CCC(c4noc5ccc(F)cc45)CC3)nn2)n1 [compound 92, 5-fluoro-3-(1-(6-(3-methyl-1H-pyrazol-1-yl)pyridazin-3-yl)piperidin-4-yl)benzo[d]isoxazole]				
81%	0.422 µM	0.359 µM	Cn1cc(-c2ccc(N3CCC(n4ccc5ccccc54)CC3)nn2)cn1 [Compound #9, 1-(1-(6-(1-methyl-1H-pyrazol-4-yl)pyridazin-3-yl)piperidin-4-yl)-1H-indole]				
86%	0.076 µM	0.257 µM	Cc1cn(-c2ccc(N3CCC(N4CCc5ccccc54)CC3)nn2)cn1 [Compound #1, 1-(1-(6-(4-methyl-1H-imidazol-1-yl)pyridazin-3-yl)piperidin-4-yl)indoline]				
100%	0.059 µM	3.06 µM	NNC(=O)c1ccc(N2CCC(c3noc4ccc(F)cc34)CC2)nn1 [Compound I1, 6-(4-(5-fluorobenzo[d]isoxazol-3-yl)piperidin-1-yl)pyridazine-3-carbohydrazide]		> 3 µM		
88%	0.257 µM	0.691 µM	Cc1cn(-c2ccc(N3CCC(c4noc5cc(F)ccc45)CC3)nn2)cn1 [compound 89, 6-fluoro-3-(1-(6-(4-methyl-1H-imidazol-1-yl)pyridazin-3-yl)piperidin-4-yl)benzo[d]isoxazole]				
95%	0.011 µM	0.362 µM	Cc1nsc(-c2ccc(N3CCC(N4CCc5ccc(F)cc54)CC3)nn2)n1 [Compound #12, 5-(6-(4-(6-fluoroindolin-1-yl)piperidin-1-yl)pyridazin-3-yl)-3-methyl-1,2,4-thiadiazole]				97%
			Cn1cc(-c2ccc(N3CCC(n4ncc5ccc(F)cc54)CC3)nn2)cn1 [Compound #47, 6-fluoro-1-(1-(6-(1-methyl-1H-pyrazol-4-yl)pyridazin-3-yl)piperidin-4-yl)-1H-indazole]		0.069 µM and 0.033 µM	−3.3 ± 0.5 *	
86%	0.165 µM	0.577 µM	Fc1ccc2onc(C3CCN(c4ccc(-c5cccnc5)nn4)CC3)c2c1 [compound 8, 5-fluoro-3-(1-(6-(pyridin-3-yl)pyridazin-3-yl)piperidin-4-yl)benzo[d]isoxazote]				
97%	0.065 µM	0.148 µM	Cc1cn(-c2ccc(N3CCC(c4noc5ccc(F)cc45)CC3)nn2)cn1 [compound 85, 5-fluoro-3-(1-(6-(4-methyl-1H-imidazol-1-yl)pyridazin-3-yl)piperidin-4-yl)benzo[d]isoxazole]				
89%	0.068 µM	0.139 µM	Cc1nsc(-c2ccc(N3CCC(c4noc5ccc(F)cc45)CC3)nn2)n1 [Compound #5, 5-fluoro-3-(1-(6-(3-methyl-1,2,4-thiadiazol-5-yl)pyridazin-3-yl)piperidin-4-yl)benzo[d]isoxazole]				
79%	0.034 µM	0.062 µM and 0.102 µM	Cc1nsc(-c2ccc(N3CCC(n4ccc5ccccc54)CC3)nn2)n1 [Compound #6, 5-(6-(4-(1H-indol-1-yl)piperidin-1-yl)pyridazin-3-yl)-3-methyl-1,2,4-thiadiazole]				
100%	0.021 µM		Cc1csc(-c2ccc(N3CCC(c4noc5ccc(F)cc45)CC3)nn2)n1 [compound 23, 5-fluoro-3-(1-(6-(4-methylthiazol-2-yl)pyridazin-3-yl)piperidin-4-yl)benzo[d]isoxazoie]		0.003 µM		

SMILES	inhibition at 1 µM (SCD1 [1]; [5])	IC50 (SCD1 [1]; rat liver microsomes)	IC50 (SCD1 [2])	inhibition at 1 µM (SCD1 [1])	IC50 (SCD1 [3])	body weight change [4]	% Inh.@ 1 μM (SCD1 [1]; [5])
OCc1cnn(-c2ccc(N3CCC(N4CCc5ccc(F)cc54)CC3)nn2)c1 [Compound #22]		0.022 µM and 0.011 µM		98%	0.007 µM and 0.005 µM	1.2 ± 0.3 *	
OCc1ccc(-c2ccc(N3CCC(N4CCc5ccc(F)cc54)CC3)nn2)cn1 [Compound #39]	99%	0.009 µM			0.0005 µM	−2.2 ± 0.5 *	
OCCn1cc(-c2ccc(N3CCC(N4CCc5ccc(F)cc54)CC3)nn2)cn1 [Compound #49, 2-(4-(6-(4-(6-fluoroindolin-1-yl)piperidin-1-yl)pyridazin-3-yl)-1H-pyrazol-1-yl)ethanol]	95%	0.025 µM and 0.019 µM			0.021 µM and 0.022 µM	0.5 ± 0.1 *	91%
Cc1cn(-c2ccc(N3CCC(N4CCc5ccc(F)cc54)CC3)nn2)cn1 [Compound #4, 6-fluoro-1-(1-(6-(4-methyl-1H-imidazol-1-yl)pyridazin-3-yl)piperidin-4-yl)indoline]	95%		0.068 µM		0.009 µM		93%
